# Earlier results as cited in patent US20080234197A1, “Method(s) of stabilizing and potentiating the actions and administration of brain-derived neurotrophic factor (BDNF)” (priority 2007, published 2008).
# Where two headings read alike, the source gives them in different places.
# B1: BDNF: brain-derived neurotrophic factor, a neurotrophin protein (protein, UniProt P23560 19-247, looked up)
# Neurotrophic factor BDNF …: APMKEANIRGQGGLAYPGVRTHGTLESVNGPKAGSRGLTSLADTFEHVIEELLDEDQKVRPNEENNKDADLYTSRVMLSSQVPLEPPLLFLLEEYKNYLDAANMSMRVRRHSDPARRGELSVCDSISEWVTAADKKTAVDMSGGTVTVLEKVPVSKGQLKQYFYETKCNPMGYTKEGCRGIDKRHWNSQCRTTQSYVRALTMDSKKRIGWRFIRIDTSCVCTLTIKRGR
# How the values were obtained:
# syntaxin 3 = details: upon addition of fatty acid
# ARH explants = details: 100 ng/ml for 72 hours, explants from neonatal mice, vs control
# [1] = test system: NPY and POMC neurons in the hypothalamus; details: ob/ob mice, after administration
# db/db mice = details: once or twice per week (70 mg/kg/wk) for 3 weeks, vs control
molecule,measurement,setting,value
CCCCCCCC/C=C\CCCCCCCC(=O)O [oleic acid],intrinsic tyrosine fluorescence of syntaxin 3,syntaxin 3,ineffective
"CCCCC/C=C\C/C=C\C/C=C\C/C=C\CCCC(=O)O [AA, arachidonic acid]",intrinsic tyrosine fluorescence of syntaxin 3,syntaxin 3,marked changes
same,expression of BDNF,"spinal cord neurons; 2-hour exposure, spinal cord neurons",markedly diminished
same,dopamine uptake,"glioma cells; 20-160 microM, pre-incubated 15-30 min",stimulated
same,dopamine uptake,"glioma cells; 160 microM, longer pre-exposures 45-60 min",inhibited
"CC/C=C\C/C=C\C/C=C\CCCCCCCC(=O)O [ALA, alpha-linolenic acid]",intrinsic tyrosine fluorescence of syntaxin 3,syntaxin 3,marked changes
"CCCCC/C=C\C/C=C\CCCCCCCC(=O)O [LA, cis-linoleic acid]",intrinsic tyrosine fluorescence of syntaxin 3,syntaxin 3,marked changes
leptin: adiposity hormone produced by the white adipose tissue,induction of neurites from ARH explants,ARH explants,significant induction of neurites
same,time to normalization of synaptic density,[1],≤ 6 h
CN1CCCC1c1cccnc1 (centres unmarked) [nicotine],protection against arachidonic acid-induced apoptosis of spinal cord neurons,spinal cord neurons,fully protected
same,prevention of arachidonic acid-induced decrease of BDNF expression,spinal cord neurons; pretreatment with 10-microM,fully prevented
B1,protection against arachidonic acid-induced apoptosis of spinal cord neurons,spinal cord neurons,fully protected
same,blood glucose concentrations,db/db mice,significantly reduced
same,hemoglobin A1c (HbA1c),db/db mice,significantly reduced
